According to PMC4096222 (Journal of Medicinal Chemistry, 2014):

What was measured:
A/M2 S31N = A/M2 S31N (Influenza A virus, UniProt P0DOF5, S31N); format: cell-based, influenza A/Udorn/72; settings: for A/M2 S31N inhibition by 100 μM for 2 min (mean ± SE): pH 5.5
A/PR/8/34 (A/H1N1) = format: cell-based, influenza A virus
A/M2 V27A = A/M2 V27A (Influenza A virus, UniProt P0DOF5, V27A); format: cell-based, influenza A/Udorn/72

In the case of `C1=CC2C3CNCC3C1C1CC21.Cl` (stereo not shown) [compound 4, 4-Azatetracyclo[5.3.2.0^2,6.0^8.10]dodec-11-ene Hydrochloride], the “A/M2 S31N inhibition by 100 μM for 2 min (mean ± SE)” value (A/M2 S31N) is reported as 0%.
`Cl.N=C(N)N1CC2C3C=CC(C4CC34)C2C1` (stereo not shown) [compound 5, 4-Amidino-4-azatetracyclo[5.3.2.0^2,6.0^8.10]dodec-11-ene Hydrochloride] was tested, and the “A/M2 S31N inhibition by 100 μM for 2 min (mean ± SE)” value (A/M2 S31N) was 0%.
`C1=CC2C3CC3C1C1CN(C3CCNCC3)CC21.Cl` (stereo not shown) [compound 8, 4-(4-Piperidinyl)-4-azatetracyclo[5.3.2.0^2,6.0^8.10]dodec-11-ene Dihydrochloride] was tested, and the “activity against A/PR/8/34 strain” value (A/PR/8/34 (A/H1N1)) was “strong activity”.
In the case of `C1=CC2C1C1C=CC2C2CNCC12.Cl` (stereo not shown) [compound 11, 4-Azatetracyclo[5.4.2.0^2,6.0^8.11]trideca-9,12-diene Hydrochloride], the “activity against A/PR/8/34 strain” value (A/PR/8/34 (A/H1N1)) is reported as “strong activity”.
In the case of `Cl.N=C(N)N1CC2C3CCC(C4CCC43)C2C1` (stereo not shown) [compound 14, 4-Amidino-4-azatetracyclo[5.4.2.0^2,6.0^8.11]tridecane Hydrochloride], the “activity against V27A M2 mutant channel” value (A/M2 V27A) is reported as “fair activity”.
`CC12CC34CNCC35CC1(C)C(C)(C5)C2(C)C4.Cl` (stereo not shown) [compound 18, 7,8,9,10-Tetramethyl-3-azapentacyclo[7.2.1.1^5,8.0^1,5.0^7,10]tridecane Hydrochloride] was tested, and the “inhibition of S31N mutant ion channel” value (A/M2 S31N) was “lack of inhibitory potency” and the “activity against A/PR/8/34 strain” value (A/PR/8/34 (A/H1N1)) was “strong activity”.
